Assay results published in the supplement of paper PMC10307832.

Experiments:
Test in all cases: relative viability (nuclei count vs DMSO), 5 days (fraction); higher = more cells survive
[1] = compound: C[C@@H](C(=O)N[C@@H](C1CCCCC1)C(=O)N2CCC[C@H]2C(=O)N[C@@H]3[C@@H](CC4=CC=CC=C34)OCC#CC#CCO[C@@H]5CC6=CC=CC=C6[C@@H]5NC(=O)[C@@H]7CCCN7C(=O)[C@H](C8CCCCC8)NC(=O)[C@H](C)NC)NC [AZD5582] + CC(=O)c1c(C)c2cnc(Nc3ccc(N4CCNCC4)cn3)nc2n(C2CCCC2)c1=O [Palbociclib] (partner 0.5 µM)
Summary of the method: (§1)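 Lung cancer cell lines in 1536-well plates got either a single drug or a fixed anchor-drug dose together with five library-drug doses (not always all listed) in √10 steps, by pin tool, on the day after seeding. Nuclei were counted after 5 days, and relative viability is the treated-to-vehicle ratio of nuclei counts. Values are medians of duplicate plates.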

[2] = compound: C[C@@H](C(=O)N[C@@H](C1CCCCC1)C(=O)N2CCC[C@H]2C(=O)N[C@@H]3[C@@H](CC4=CC=CC=C34)OCC#CC#CCO[C@@H]5CC6=CC=CC=C6[C@@H]5NC(=O)[C@@H]7CCCN7C(=O)[C@H](C8CCCCC8)NC(=O)[C@H](C)NC)NC [AZD5582] + CC1(C)CCC(c2ccc(Cl)cc2)=C(CN2CCN(c3ccc(C(=O)NS(=O)(=O)c4ccc(N[C@H](CCN5CCOCC5)CSc5ccccc5)c(S(=O)(=O)C(F)(F)F)c4)cc3)CC2)C1 [Navitoclax] (partner 0.5 µM)
Summary of the method: as §1

[3] = compound: Cn1nnc2c(C(N)=O)ncn2c1=O [Temozolomide] + C[C@]1(O)C[C@@H](c2nc(-c3ccc4ccc(-c5ccccc5)nc4c3)c3c(N)nccn32)C1 [Linsitinib] (partner 1 µM)
Summary of the method: as §1

[4] = compound: Cn1nnc2c(C(N)=O)ncn2c1=O [Temozolomide] + C[C@@H](Oc1cc(-c2cnn(C3CCNCC3)c2)cnc1N)c1c(Cl)ccc(F)c1Cl [Crizotinib] (partner 1 µM)
Summary of the method: as §1

Cell Line	relative viability ([1]; first compound 0.001581 µM)	relative viability ([1]; first compound 0.005 µM)	relative viability ([1]; first compound 0.01581 µM)	relative viability ([1]; first compound 0.05 µM)	relative viability ([2]; first compound 0.001581 µM)	relative viability ([2]; first compound 0.005 µM)	relative viability ([2]; first compound 0.01581 µM)	relative viability ([2]; first compound 0.05 µM)	relative viability ([3]; first compound 0.2 µM)	relative viability ([3]; first compound 0.6325 µM)	relative viability ([3]; first compound 2 µM)	relative viability ([3]; first compound 6.325 µM)	relative viability ([3]; first compound 20 µM)	relative viability ([4]; first compound 0.2 µM)	relative viability ([4]; first compound 0.6325 µM)	relative viability ([4]; first compound 2 µM)	relative viability ([4]; first compound 6.325 µM)	relative viability ([4]; first compound 20 µM)
NCI-H1792	0.629	0.715	0.624	0.776	0.608	0.632	0.578	0.836	0.363	0.586	0.498	0.475	0.481	0.957	1.05	1	0.76	0.972
NCI-H1915	0.521	0.536	0.502	0.544	0.777	0.757	0.793	0.746	1.15	1.02	0.969	0.711	0.402	0.922	0.816	0.754	0.597	0.342
NCI-H1944	0.274	0.319	0.309	0.43	0.985	1.13	1.08	1.11	0.662	1.17	1.26	1.11	0.992	0.817	1.08	1.18	1.06	0.975
NCI-H1975	0.547	0.728	0.548	0.52	1.12	1.19	1.18	1.2	0.961	1.01	0.922	0.903	0.9	1.02	0.948	1.06	0.92	0.956
NCI-H1993	0.564	0.558	0.655	0.664	0.917	0.936	0.876	0.922	0.725	0.727	0.698	0.744	0.708	0.779	0.85	0.876	0.94	0.703
NCI-H2009	0.24	0.225	0.184	0.203	1.14	1.21	1.15	1.18	1.2	1.22	1.3	1.2	1.22	1.07	1.07	1.06	1.03	1.07
NCI-H2023	0.35	0.469	0.359	0.4	0.962	0.844	1.01	0.956	0.567	0.7	0.665	0.712	0.662	0.64	0.631	0.678	0.516	0.648
NCI-H2085	0.504	0.509	0.459	0.599	1.14	1.1	1.12	1.01	0.865	0.919	0.788	0.994	0.84	0.746	0.904	0.651	0.866	0.685
